Test results reported in patent publication EP0378285A1, “Substituted alkenes, processes for their preparation and their use as pesticides” (priority 1989, dated 1990).

Legend:
Format in all cases: in vivo
[1] = test system: brown rice-hoppers (Niliparvata lugens Stal); test: Use Example B: activity in prophylactic treatment of leaves against brown rice-hoppers; settings: 48 h; for mortality at 0.1 %: read-out: activity
Excerpt: Activity in prophylactic treatment of leaves against brown rice-hoppers (Niliparvata lugens Stal)
Rice seedlings (Oryzae sativa L.) in the two leaf stage (about 10 per polystyrene pot of size 6.5 x 6.5 cm) were either untreated or […] until dripping wet, with an aqueous preparation containing 0.1 % of active material. After drying the sprayed leaves, a transparent cylinder was placed over each pot and through an opening, about 30 brown rice-hoppers (Niliparvata lugens) in the 4-5 stage, anaesthetised with carbon dioxide, were introduced into each pot. After closing the opening with a fine mesh screen, the pots were kept for 2 days at 28° C and 16 hours/day of light in the glasshouse, the amount of dead hoppers was determined. The percentage mortality was then estimated and the activity calculated using Abbott's method in comparison with the untreated controls.

[2] = test system: corn rootworm (Diabrotica undecimpunctata); test: Use Example D: activity against eggs/larvae of the corn rootworm; settings: 168 h; for activity: corn rootworm, in vivo; for mortality at 0.1 %: Diabrotica undecimpunctata, aqueous emulsion 0.1%, 0.2 ml pipetted into soil, 7 days at 25 C, death of eggs or newly hatched larvae
Procedure: Activity against eggs/larvae of the corn rootworm (Diabrotica undecimpunctata)
The compounds of the invention were made up as aqueous emulsions at a concentration of 0.1%. Into the soil in polystyrene petri dishes, containing maize seedlings (1 seedling/dish) and ca. 50 eggs of the corn rootworm (Diabrotica undecimpunctata) were pipetted 0.2 ml of these preparations. The closed dishes were left at 25 C under extended daylight conditions for 7 days. The criterion for judging the activity was the death of eggs or newly hatched larvae at the end of the test.

Aphis fabae = test: Activity in prophylactic treatment of leaf discs against Aphis fabae; settings: 48 h; for mortality at 0.1 %: Aphis fabae, foliar, 0.1% aqueous preparation, field bean leaf discs infested with wingless stages, 2 days at 25 C, percentage mortality, Abbott's method
Procedure: From the primary leaf of field beans (Phaseolus vulgaris nanus Aschers.), 24 mm diameter discs were cut. Some of these were treated with a 0.1% aqueous preparations of compounds of the invention and these along side untreated discs were placed on filter papers with the underside of the leaves turned upwards. After drying the test pieces, they were each infested with wingless stages of Aphis fabae (approx 100 per leaf piece). The experiment was replicated 3 times. The leaves were kept on wet filter papers for 2 days at 25 C and 16 hours light per day. The percentage mortality was then estimated and the activity calculated using Abbott's method in comparison with the untreated controls.

[3] = test system: two spotted mite (Tetranychus urticae Koch); test: Use Example C: activity in the prophylactic treatment of feed against the two spotted mite; settings: foliar, 0.1 % aqueous preparation, field bean leaf discs, adults and eggs counted after 3 days at 25 C, larvae after a further 7 days, Abbott's method
Procedure: Activity in the prophylactic treatment of feed against the two spotted mite (Tetranychus urticae Koch)
From the primary leaf of field beans (Phaseolus vulgaris nanus Aschers.) 14 mm diameter discs were cut. Some of these were treated with a 0.1 % aqueous preparations of compounds of the invention and these along side untreated discs were placed on filter papers with the underside of the leaves turned upwards. After drying the test pieces, they were each infested with six adult female Tetranychus urticae and maintained for 3 days at 25 C and 16 hours light per day. The experiment was replicated 4 times. Dead and alive adults were then counted and removed. Similarly the number of eggs laid were counted. After a further 7 days, the number of living larvae were counted, the activity calculated using Abbott's method in comparison with the untreated controls.

[4] = test system: cotton army worm (Spodoptera littoralis); test: Use Example F: ovicidal activity against eggs of the cotton army worm; settings: aqueous preparation 0.1 %; one day old eggs dipped; four days; % inhibition of hatching of the eggs
Excerpt: Ovicidal activity against eggs of the cotton army worm (Spodoptera littoralis).
The compounds of the invention were made up as aqueous preparations at a concentration of 0.1 %. One day old eggs that had been laid on filter paper by fertilised female moths were dipped in the preparations until they were completely wet and then placed in closed petri dishes in the laboratory under extended daylight conditions for four days. The % inhibition of hatching of the eggs in comparison with untreated eggs indicates the level of activity.

[5] = test system: cotton bollworm (Heliothis viriscens); test: whole plant or invertebrate; settings: 48 h, read-out: activity
Procedure: Activity against larvae (L1) of the cotton bollworm (Heliothis viriscens)
Compounds of the invention were made up as aqueous preparations at a concentration of 0.1 %. Into these, feed material was dipped for 2 seconds. After drying the feed material was put into into polystyrene petri dishes. After an hour, 10 L1 of the cotton bollworm (Heliothis viriscens) were counted into the dishes. The closed dishes were left for up to 7 days at 25 °C under extended daylight conditions. The % mortality of the larvae after two days indicated the level of activity.

[6] = test system: house fly (Musca domestica); test: Use Example J: activity against house fly; settings: adult houseflies on treated filter papers; 22 C for 24 hours
Procedure: Activity against house fly (Musca domestica)
Aliquots (0.7 ml) of acetone solutions or suspensions of test compounds at various concentrations were applied to filter papers (9 cm diameter) placed in the bottom of petri dishes (9 cm diameter) closed by glass lids. After evaporation of solvent, the treated surfaces, together with controls treated with acetone alone, were then infested with adult houseflies, (Musca domestica) and held at 22 C for 24 hours. The percentage mortality of the insects was then recorded.

Boophilus microplus = test: whole plant or invertebrate; settings: Rhipicephalus microplus, 48 h, read-out: concentration causing 50% mortality
Procedure: Tickicidal activity against Boophilus microplus
9 cm diameter filter papers were impregnated with 1 ml aliquots of acetone solutions of test compound at various concentrations. The papers were allowed to dry and then folded into envelopes in which cattle tick larvae, (Boophilus microplus) were enclosed and held at 25°C and 80% R.H. for 48 hours. The percentage mortality of tick larvae was then recorded and compared with controls.

[7] = test system: Sheep blowfly (Lucilia sericata); test: whole plant or invertebrate; settings: 24 h, read-out: LCso
Procedure: Activity against Sheep blowfly (Lucilia sericata)
1 ml aliquots of acetone solutions or suspensions, containing test compound at various concentrations, were applied to cotton wool dental rolls (1 cm x 2 cm), contained in glass vials 2 cm diameter x 5 cm long. After drying, the treated materials were then impregnated with 1 ml of nutrient solution, infested with approximately 30 first instar larvae of sheep blow fly (Lucilia sericata), closed by a cotton wool plug and held at 25 C for 24 hours.

[8] = test system: corn rootworm (Diabrotica undecimpunctata); test: Use Example E: soil insecticide activity against eggs/larvae of the corn rootworm; settings: aqueous preparation 0.0025%, 5 ml into 50 cm^3 earth, 10 days at 25 C
Procedure: Soil insecticide activity against eggs/larvae of the corn rootworm (Diabrotica undecimpunctata)
5 ml of these preparations were pipetted into 300 ml clear plastic beakers, containing 50 cm^3 earth and ca. 50 Diabrotica eggs, as well as 2 presoaked maize seeds. The sealed pots were left for 10 days under extended daylight conditions at 25 C. The criterion for judging the activity after 10 days was the larvicidal activity and the root growth of the emerging maize plants in the treated pots in comparison with untreated controls.

SMILES	mortality at 0.1 % [1]	mortality at 0.1 % (Aphis fabae)	mortality at 0.1 % [2]	mortality at 0.1 % [3]	mortality at 0.1 % [5]	other results
C=C(C)C(C)(C)CCCc1cccc(Oc2ccccc2)c1 [Example 1, 6-(3-Phenoxyphenyl)-2,3,3,-trimethyl-1-hexene]						activity ([1]; brown rice-hopper, in vivo): ≥ 80%; activity [2]: 80-100%
CC(C)(COCc1ccc(F)c(Oc2ccccc2)c1)C1=CCCCC1 [Example 2, 2-(Cyclohexen-1-yl)-2-methyl-1-(4-fluoro-3-phenoxybenzyloxy)propane]	≥ 80%	≥ 80%	80 to 100%			
C=C(C)C(C)(C)CCCc1ccc(F)c(Oc2ccccc2)c1 [Example 4, 6-(4-fluoro-3-phenoxyphenyl)-2,3,3-trimethyl-1-hexene]	≥ 80%	≥ 80%	80 to 100%	80 to 100%	80 to 100%	activity [4]: 80 - 100%
C=C(C)C(C)(C)COCc1ccc(F)c(Oc2ccccc2)c1 [Example 5, 4-(4-fluoro-3-phenoxybenzyloxy)-2,3,3-trimethyl-1-butene]		≥ 80%	80 to 100%	80 to 100%	80 to 100%	LDso [6]: less than 1000 mg/m^2; activity [4]: 80 - 100%; LC50 (Boophilus microplus): ≤ 100 µg/mL; LC50 [7]: < 300 µg/mL
C=C(Br)C(C)(C)COCc1cccc(Oc2ccccc2)c1 [Example 7, 2-bromo-3,3-dimethyl-4-(3-phenoxy-benzyloxy)-1-butene]		≥ 80%	80 to 100%	80 to 100%		
CC(C)(COCc1cccc(Oc2ccccc2)c1)C1=CCCCC1 [Example 8, 2-(cyclohexen-1-yl)-2-methyl-1-(3-phenoxybenzyloxy)propane]			80 to 100%		80 to 100%	
CC(C)(COCc1ccc(F)c(Oc2ccccc2)c1)C1=CCCC1 [Example 10, 2-(cyclopenten-1-yl)-1-(4-fluoro-3-phenoxybenzyloxy)-2-methylpropane]		≥ 80%		80 to 100%	80 to 100%	
C=C(c1ccccc1)C(C)(C)COCc1ccc(F)c(Oc2ccccc2)c1 [Example 14, 3,3-dimethyl-4-(4-fluoro-3-phenoxy-benzyloxy)-2-phenyl-1-butene]	≥ 80%					
C=C(c1ccccc1)C(C)(C)COCc1cccc(-c2ccccc2)c1C [Example 15, 3,3-dimethyl-4-(2-methyl-3-phenyl-benzyloxy)-2-phenyl-1-butene]				80 to 100%		
C=C(C)C(C)(C)COCc1cccc(Oc2ccccc2)c1 [Example 16, 4-(3-phenoxybenzyloxy)-2,3,3-trimethyl-1-butene]	≥ 80%					LDso [6]: less than 1000 mg/m^2; mortality at 0.0025 % ([8]; Diabrotica undecimpunctata, soil, 240 h, read-out: larvicidal activity): 90 to 100%; root growth of the emerging maize plants ([8]; in comparison with untreated controls): good root growth; LC50 (Boophilus microplus): ≤ 100 µg/mL; LC50 [7]: < 300 µg/mL
C=C(C)C(C)(C)COCc1cccc(Oc2ccccc2)n1 [Example 17, 4-(6-phenoxypyridin-2-ylmethoxy)-2,3,3-trimethyl-1-butene]	≥ 80%		80 to 100%			
C=C(C)C(C)(C)CCCc1cccc(Oc2ccccc2)n1 [Example 18, 6-(6-phenoxypyridin-2-yl)-2,3,3-trimethyl-1-hexene]	≥ 80%	≥ 80%	80 to 100%	80 to 100%		
C=C(C)C(C)(C)COCc1cccc(Oc2ccc(Cl)cc2)c1 [Example 21, 4-[3-(4-chlorophenoxy)benzyloxy]-2,3,3-trimethyl-1-butene]	≥ 80%	≥ 80%	80 to 100%	80 to 100%		
C=C(C)C(C)(C)COCc1cccc(Oc2cccc(C(F)(F)F)c2)c1 [Example 24, 4-[3-(3-trifluoromethylphenoxy)-benzyloxy]-2,3,3-trimethyl-1-butene]	≥ 80%					
C=C(C(C)C)C(C)(C)COCc1cccc(Oc2ccccc2)c1 [Example 25, 3-methylene-5-(3-phenoxy-benzyloxy)-2,4,4-trimethylpentane]	≥ 80%					
C=C(C(C)C)C(C)(C)COCc1ccc(F)c(Oc2ccccc2)c1 [Example 26]						activity (Aphis fabae; aphis fabae, in vivo): ≥ 80%; activity [2]: 80-100%
CC(C)(COCc1ccc(F)c(Oc2ccccc2)c1)C1=CCOCC1 [Example 44, 1-(4-fluoro-3-phenoxybenzyloxy)-2-methyl-2-(4-oxacyclohexen-1-yl)propane]	≥ 80%					
C=C(C)C1(COCc2ccc(F)c(Oc3ccccc3)c2)CC1 [Example 51, 2-(4-fluoro-3-phenoxybenzyloxy-methyl)-2-isopropenylcyclopropane]	≥ 80%	≥ 80%	80 to 100%			
C=C(Br)C(C)(C)COCc1ccc(F)c(Oc2ccccc2)c1 [Example 59, 2-bromo-3,3-dimethyl-4-(4-fluoro-3-phenoxybenzyloxy)-1-butene]	≥ 80%	≥ 80%	80 to 100%	80 to 100%	80 to 100%	
C=C(I)C(C)(C)COCc1ccc(F)c(Oc2ccccc2)c1 [Example 60, 3,3-dimethyl-2-iodo-4-(4-fluoro-3-phenoxybenzyloxy)-1-butene]	≥ 80%	≥ 80%		80 to 100%		
C=C(c1ccccc1)C(C)(C)COCc1c(F)c(F)c(F)c(F)c1F [Example 61, 3,3-dimethyl-4-(2,3,4,5,6-pentafluoro-benzyloxy)-2-phenyl-1-butene]				80 to 100%		
CC(C)(COCc1c(F)c(F)c(F)c(F)c1F)C1=CCCC1 [Example 62, 2-(cyclopenten-1-yl)-2-methyl-1-(2,3,4,5,6-pentafluorobenzyloxy)propane]					80 to 100%	
C=C(I)C(C)(C)CCCc1cccc(Oc2ccccc2)c1 [Example 63, 3,3-dimethyl-2-iodo-6-(3-phenoxy-phenyl)-1-hexene]	≥ 80%				80 to 100%	
